Measured values as given in PubChem BioAssay AID1347054 (Pharmacoinformatics Research Group Wien, 2019).
Activity calls are given as the source filed them.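 How the source made its calls: active means clear block of the BCRP drug efflux pump at 10 µM versus solvent-only wells, p under 0.05; inactive means the rest.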

Target: Broad substrate specificity ATP-binding cassette transporter ABCG2 (Homo sapiens) (UniProt Q9UNQ0)
Assay: ABCG2-mediated mitoxantrone transport inhibition – PLB985 cells, flow cytometry (AID 1347054)
Conditions: PLB985-BCRP cells, mitoxantrone accumulation, at 10 µM, hits give high values

Chain of Broad substrate specificity ATP-binding cassette transporter ABCG2 (Homo sapiens) (Q9UNQ0 whole entry, looked up): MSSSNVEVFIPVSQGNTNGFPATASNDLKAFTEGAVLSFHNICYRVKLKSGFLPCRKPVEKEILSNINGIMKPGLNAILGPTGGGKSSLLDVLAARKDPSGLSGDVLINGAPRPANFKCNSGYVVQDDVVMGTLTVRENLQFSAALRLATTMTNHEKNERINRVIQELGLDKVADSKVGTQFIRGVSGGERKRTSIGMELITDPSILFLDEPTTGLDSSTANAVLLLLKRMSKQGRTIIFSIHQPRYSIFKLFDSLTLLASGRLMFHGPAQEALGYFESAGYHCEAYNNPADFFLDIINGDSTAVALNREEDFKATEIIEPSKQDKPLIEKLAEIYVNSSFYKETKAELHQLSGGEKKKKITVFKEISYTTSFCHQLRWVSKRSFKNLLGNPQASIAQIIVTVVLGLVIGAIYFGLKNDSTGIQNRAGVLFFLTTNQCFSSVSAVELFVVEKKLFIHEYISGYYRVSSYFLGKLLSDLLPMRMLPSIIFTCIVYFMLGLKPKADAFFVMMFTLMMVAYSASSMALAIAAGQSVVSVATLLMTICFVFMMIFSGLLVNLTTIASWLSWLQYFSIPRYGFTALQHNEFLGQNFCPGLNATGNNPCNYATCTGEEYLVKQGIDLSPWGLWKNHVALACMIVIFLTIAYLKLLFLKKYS

SMILES	inhibition
CN(Cc1ccc(C(C)(C)C)cc1)Cc1cccc2ccccc12	10.8% (inactive)
C=C1CC[C@H](O)C/C1=C/C=C1\CCC[C@]2(C)[C@@H]([C@H](C)CCCC(C)C)CC[C@@H]12	1.28% (inactive)
CN(C/C=C/C#CC(C)(C)C)Cc1cccc2ccccc12	9.86% (inactive)
COc1ccc2c(c1)C13CCCC[C@@H]1C(C2)N(C)CC3 (stereo partly specified)	-6.11% (inactive)
CS(C)=O	0% (inactive)
COc1cc(N)c(Cl)cc1C(=O)N[C@@H]1CCN(CCCOc2ccc(F)cc2)C[C@@H]1OC	83.8%
COc1cc(NS(C)(=O)=O)ccc1Nc1c2ccccc2nc2ccccc12	13.7% (inactive)
COc1ccc(C(=O)Nc2ccccc2CCC2CCCCN2C)cc1 (stereo unspecified)	13.3% (inactive)
C[C@]12CCC(=O)C=C1[C@@H]1C[C@@H]1[C@H]1[C@@H]3[C@@H]4C[C@@H]4[C@@]4(CCC(=O)O4)[C@@]3(C)CC[C@@H]12	14.4% (inactive)
O=C(Nc1c(Cl)cncc1Cl)c1ccc(OC(F)F)c(OCC2CC2)c1	61.7%
CCCCN(CCCC)CCC(O)c1cc2c(Cl)cc(Cl)cc2c2cc(C(F)(F)F)ccc12 (stereo unspecified)	-9.66% (inactive)
